# Target: T1, Human M4 (Homo sapiens, UniProt P08173)
# T1 construct: Human or rat M4 cDNA, along with the chimeric G protein Gq,5, were transfected into Chinese hamster ovary (CHO-K1) cells; expressed in transfected cells; host or cells: CHO-K1 (M4/Gqi5/CHO)
# T1 sequence (P08173 1-479): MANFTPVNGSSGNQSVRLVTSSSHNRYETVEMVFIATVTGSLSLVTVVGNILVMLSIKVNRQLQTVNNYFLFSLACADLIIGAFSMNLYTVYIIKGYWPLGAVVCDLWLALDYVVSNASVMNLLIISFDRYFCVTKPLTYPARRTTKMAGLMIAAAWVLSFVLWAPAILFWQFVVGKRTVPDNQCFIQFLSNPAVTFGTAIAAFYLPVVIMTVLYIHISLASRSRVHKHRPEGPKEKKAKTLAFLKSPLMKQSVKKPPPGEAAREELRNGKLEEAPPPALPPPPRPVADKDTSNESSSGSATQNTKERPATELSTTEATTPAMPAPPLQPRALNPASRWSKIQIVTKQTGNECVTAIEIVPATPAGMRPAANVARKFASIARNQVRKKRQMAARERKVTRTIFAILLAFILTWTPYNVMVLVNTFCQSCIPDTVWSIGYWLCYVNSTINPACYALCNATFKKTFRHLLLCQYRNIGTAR
# Experiment: mAChR M4 cell-based functional assay (calcium flux, decrease of EC80 acetylcholine response)
# Conditions: for Human M4 Emin: % ACh maximum at 30 μM; for IC50: CHO-K1 cells with human M4 and Gqi5, EC80 acetylcholine
# Method in brief: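 CHO-K1 cells stably co-expressing M4 with chimeric Gqi5, loaded with Fluo-4 AM for 50 min at 37 °C; compounds added as 10-point 1:3 curves, then acetylcholine at EC20 (143 s) and EC80 (268 s). Calcium read by FDSS fluorescence ratio; IC50 from four-parameter fit of decrease in EC80 acetylcholine response.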
Compound,Human M4 Emin,IC50
"O=S1(=O)CCC(CN2C[C@H]3C[C@H](Nc4ccc(-c5cc(F)cc(F)c5F)nn4)C[C@H]3C2)CC1 [Compound 69, 4-(((3aR,5s,6aS)-5-((6-(2,3,5-trifluorophenyl)pyridazin-3-yl)amino)hexahydrocyclopenta[c]pyrrol-2(1H)-yl)methyl)tetrahydro-2H-thiopyran 1,1-dioxide]",3%,0.9 nM
[2H]C1([2H])[C@H](Nc2ccc(-c3cc(F)cc(F)c3F)nn2)C([2H])([2H])[C@H]2CN(CC3CCOCC3)C[C@H]21 [Compound 70],3%,4.4 nM
"Fc1cc(F)c(F)c(-c2ccc(N[C@H]3C[C@@H]4CN(C[C@H]5[C@@H]6COC[C@@H]65)C[C@@H]4C3)nn2)c1 [Compound 71, (3aR,5s,6aS)-2-(((1R,58,6s)-3-oxabicyclo[3.1.0]hexan-6-yl)methyl)-N-(6-(2,3,5-trifluorophenyl)pyridazin-3-yl)octahydrocyclopenta[c]pyrrol-5-amine]",3%,0.47 nM
"Fc1cc(F)c(F)c(-c2ccc(N[C@H]3C[C@@H]4CN(CC5CC56CCOCC6)C[C@@H]4C3)nn2)c1 (stereo partly drawn) [Compound 72, (3aR,5s,6aS)-2-((6-oxaspiro[2.5]octan-1-yl)methyl)-N-(6-(2,3,5-trifluorophenyl)pyridazin-3-yl)octahydrocyclopenta[c]pyrrol-5-amine]",3%,2.1 nM
"Fc1cc(F)c(F)c(-c2ccc(N[C@H]3C[C@@H]4CN(CC5CCCOCC5)C[C@@H]4C3)nn2)c1 (stereo partly drawn) [Compound 73, (3aR,5s,6aS)-2-(oxepan-4-ylmethyl)-N-(6-(2,3,5-trifluorophenyl)pyridazin-3-yl)octahydrocyclopenta[c]pyrrol-5-amine]",3%,0.82 nM
"CCOCCN1C[C@H]2C[C@H](Nc3ccc(-c4cc(F)cc(F)c4F)nn3)C[C@H]2C1 [Compound 74, (3aR,5s,6aS)-2-(2-ethoxyethyl)-N-(6-(2,3,5-trifluorophenyl)pyridazin-3-yl)octahydrocyclopenta[c]pyrrol-5-amine]",4%,210 nM
"COCCCN1C[C@H]2C[C@H](Nc3ccc(-c4cc(F)cc(F)c4F)nn3)C[C@H]2C1 [Compound 75, (3aR,5s,6aS)-2-(3-methoxypropyl)-N-(6-(2,3,5-trifluorophenyl)pyridazin-3-yl)octahydrocyclopenta[c]pyrrol-5-amine]",4%,79 nM
"[2H]C([2H])([C@H]1[C@@H]2COC[C@@H]21)N1C[C@H]2C[C@H](Nc3ccc(-c4cc(F)cc(F)c4F)nn3)C[C@H]2C1 [Compound 76, (3aR,5s,6aS)-2-(((1R,58,6s)-3-oxabicyclo[3.1.0]hexan-6-yl)methyl-d2)-N-(6-(2,3,5-trifluorophenyl)pyridazin-3-yl)octahydrocyclopenta[c]pyrrol-5-amine]",3%,0.59 nM
"[2H]C([2H])([C@@H]1CC12CCOCC2)N1C[C@H]2C[C@H](Nc3ccc(-c4cc(F)cc(F)c4F)nn3)C[C@H]2C1 [Compound 77, (3aR,5s,6aS)-2-((6-oxaspiro[2.5]octan-1-yl)methyl-d2)-N-(6-(2,3,5-trifluorophenyl)pyridazin-3-yl)octahydrocyclopenta[c]pyrrol-5-amine]",3%,2.1 nM
"[2H]C([2H])(C1CCCOCC1)N1C[C@H]2C[C@H](Nc3ccc(-c4cc(F)cc(F)c4F)nn3)C[C@H]2C1 (stereo partly drawn) [Compound 78, (3aR,5s,6aS)-2-(oxepan-4-ylmethyl-d2)-N-(6-(2,3,5-trifluorophenyl)pyridazin-3-yl)octahydrocyclopenta[c]pyrrol-5-amine]",2%,1.2 nM
"[2H]C([2H])(COCC)N1C[C@H]2C[C@H](Nc3ccc(-c4cc(F)cc(F)c4F)nn3)C[C@H]2C1 [Compound 79, (3aR,5s,6aS)-2-(2-ethoxyethyl-1,1-d2)-N-(6-(2,3,5-trifluorophenyl)pyridazin-3-yl)octahydrocyclopenta[c]pyrrol-5-amine]",5%,120 nM
"[2H]C([2H])(CCOC)N1C[C@H]2C[C@H](Nc3ccc(-c4cc(F)cc(F)c4F)nn3)C[C@H]2C1 [Compound 80, (3aR,5s,6aS)-2-(3-methoxypropyl-1,1-d2)-N-(6-(2,3,5-trifluorophenyl)pyridazin-3-yl)octahydrocyclopenta[c]pyrrol-5-amine]",8%,4500 nM
"[2H]C([2H])(C1CCOCC1)N1C[C@H]2C[C@H](Nc3ccc(-c4cc(F)cc(F)c4F)nn3)C[C@H]2C1 [Compound 81, (3aR,5s,6aS)-2-((tetrahydro-2H-pyran-4-yl)methyl-d2)-N-(6-(2,3,5-trifluorophenyl)pyridazin-3-yl)octahydrocyclopenta[c]pyrrol-5-amine]",3%,6.7 nM
"CC1(C)CC(CN2C[C@H]3C[C@H](Nc4ccc(-c5cc(F)cc(F)c5F)nn4)C[C@H]3C2)CC(C)(C)O1 [Compound 82, (3aR,5s,6aS)-2-((2,2,6,6-tetramethyltetrahydro-2H-pyran-4-yl)methyl)-N-(6-(2,3,5-trifluorophenyl)pyridazin-3-yl)octahydrocyclopenta[c]pyrrol-5-amine]",2%,62 nM
"[2H]C([2H])(C1CC(C)(C)OC(C)(C)C1)N1C[C@H]2C[C@H](Nc3ccc(-c4cc(F)cc(F)c4F)nn3)C[C@H]2C1 [Compound 83, (3aR,5s,6aS)-2-((2,2,6,6-tetramethyltetrahydro-2H-pyran-4-yl)methyl-d2)-N-(6-(2,3,5-trifluorophenyl)pyridazin-3-yl)octahydrocyclopenta[c]pyrrol-5-amine]",3%,56 nM
"Fc1cc(F)c(F)c(-c2ccc(N[C@H]3C[C@@H]4CN(CCC5COC5)C[C@@H]4C3)nn2)c1 [Compound 84, (3aR,5s,6aS)-2-(2-(oxetan-3-yl)ethyl)-N-(6-(2,3,5-trifluorophenyl)pyridazin-3-yl)octahydrocyclopenta[c]pyrrol-5-amine]",4%,72 nM
"[2H]C([2H])(CC1COC1)N1C[C@H]2C[C@H](Nc3ccc(-c4cc(F)cc(F)c4F)nn3)C[C@H]2C1 [Compound 85, (3aR,5s,6aS)-2-(2-(oxetan-3-yl)ethyl-1,1-d2)-N-(6-(2,3,5-trifluorophenyl)pyridazin-3-yl)octahydrocyclopenta[c]pyrrol-5-amine]",4%,66 nM
"Fc1cc(F)c(F)c(-c2ccc(N[C@H]3C[C@@H]4CN(CC5(F)CCCCC5)C[C@@H]4C3)nn2)c1 [Compound 87, (3aR,5s,6aS)-2-((1-fluorocyclohexyl)methyl)-N-(6-(2,3,5-trifluorophenyl)pyridazin-3-yl)octahydrocyclopenta[c]pyrrol-5-amine]",3%,41 nM
"Fc1cc(F)c(F)c(-c2ccc(N[C@H]3C[C@@H]4CN(Cc5ccccc5F)C[C@@H]4C3)nn2)c1 [Compound 89, (3aR,55,6aS)-2-(2-fluorobenzyl)-N-(6-(2,3,5-trifluoropheny)pyridazin-3-yl)octahydrocyclopenta[c]pyrrol-5-amine]",3%,170 nM
"Fc1cc(F)c(F)c(-c2ccc(N[C@H]3C[C@@H]4CN(Cc5cccc(F)c5F)C[C@@H]4C3)nn2)c1 [Compound 90, (3aR,5s,6aS)-2-(2,3-difluorobenzyl)-N-(6-(2,3,5-trifluorophenyl)pyridazin-3-yl)octahydrocyclopenta[c]pyrrol-5-amine]",10%,960 nM
"Fc1ccc(CN2C[C@H]3C[C@H](Nc4ccc(-c5cc(F)cc(F)c5F)nn4)C[C@H]3C2)c(F)c1 [Compound 91, (3aR,5s,6aS)-2-(2,4-difluorobenzyl)-N-(6-(2,3,5-trifluorophenyl)pyridazin-3-yl)octahydrocyclopenta[c]pyrrol-5-amine]",4%,360 nM
"[2H]C([2H])(c1c(F)cccc1F)N1C[C@H]2C[C@H](Nc3ccc(-c4cc(F)cc(F)c4F)nn3)C[C@H]2C1 [Compound 92, (3aR,5s,6aS)-2-((2,6-difluorophenyl)methyl-d2)-N-(6-(2,3,5-trifluorophenyl)pyridazin-3-yl)octahydrocyclopenta[c]pyrrol-5-amine]",7%,750 nM
"[2H]C([2H])(C1CCOCC1(F)F)N1C[C@H]2C[C@H](Nc3ccc(-c4cc(F)cc(F)c4F)nn3)C[C@H]2C1 (stereo partly drawn) [Compound 93, (3aR,5s,6aS)-2-((3,3-difluorotetrahydro-2H-pyran-4-yl)methyl-d2)-N-(6-(2,3,5-trifluorophenyl)pyridazin-3-yl)octahydrocyclopenta[c]pyrrol-5-amine]",3%,3.9 nM
